From patent publication US9233964B2, “Sulfamide piperazine derivatives as protein tyrosine kinase inhibitors and pharmaceutical use therof” (LEO PHARMA A/S, priority 2011, dated 2016)

Legend:
Format in all cases: biochemical
[1] = biological target: T1, JAK1 (Homo sapiens, UniProt P23458); assay: JAK kinase assay (HTRF, phosphorylation of synthetic peptide), JAK1; details: catalytic domain, ATP at Km (7 μM); read-out: JAK1 kinase inhibitory activity (EC50)
T1 construct: JAK1 (aa 850-1154) and TYK2 (aa 871-1187) are expressed with an N-terminally fused GST-tag; GST (N); purchased Carna Biosciences, Inc; host or cells: baculovirus expression system
T1 sequence (P23458 850-1154): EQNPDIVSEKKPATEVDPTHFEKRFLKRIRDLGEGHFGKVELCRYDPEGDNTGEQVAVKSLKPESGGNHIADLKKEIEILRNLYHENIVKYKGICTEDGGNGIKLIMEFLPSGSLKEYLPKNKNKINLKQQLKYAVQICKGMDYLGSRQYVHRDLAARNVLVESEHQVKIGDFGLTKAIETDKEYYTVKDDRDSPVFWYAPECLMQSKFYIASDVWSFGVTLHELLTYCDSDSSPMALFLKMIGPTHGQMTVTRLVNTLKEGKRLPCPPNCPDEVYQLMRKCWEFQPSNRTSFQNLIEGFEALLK
How it was run: (§1)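 Catalytic-domain human JAK1 (GST-tagged, aa 850-1154) or His-tagged JAK2, baculovirus-expressed, phosphorylated 1 µM biotinylated TK peptide at Km ATP (JAK1 7 µM, 10 mM MgCl2, 50 nM SEB; JAK2 4 µM, 5 mM MgCl2) in pH 7.0 Hepes, 20-30 min RT. EDTA stop; overnight streptavidin-XL665/cryptate HTRF read.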

[2] = biological target: T2, JAK2 (Homo sapiens, UniProt O60674); assay: JAK kinase assay (HTRF, phosphorylation of synthetic peptide), JAK2; details: catalytic domain, ATP at Km (4 μM); read-out: JAK2 kinase inhibitory activity (EC50)
T2 construct: All four purified enzymes contain only the catalytic domain; His (N); purchased Carna Biosciences, Inc; host or cells: baculovirus expression system
T2 sequence (O60674 849-1124 limits assumed): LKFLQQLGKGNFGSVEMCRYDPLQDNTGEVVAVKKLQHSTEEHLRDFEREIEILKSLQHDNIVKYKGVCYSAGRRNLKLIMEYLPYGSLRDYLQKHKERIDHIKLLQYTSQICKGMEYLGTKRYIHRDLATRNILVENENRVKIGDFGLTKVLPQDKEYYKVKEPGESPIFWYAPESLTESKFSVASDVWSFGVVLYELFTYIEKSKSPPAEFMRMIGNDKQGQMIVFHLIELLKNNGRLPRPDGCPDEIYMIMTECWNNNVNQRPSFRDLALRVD
How it was run: as §1

[3] = biological target: T3, JAK3 (Homo sapiens, UniProt P52333); assay: JAK kinase assay (HTRF, phosphorylation of synthetic peptide), JAK3; details: catalytic domain, ATP at Km (2 μM); read-out: JAK3 kinase inhibitory activity (EC50)
T3 construct: All four purified enzymes contain only the catalytic domain; His (N); purchased Carna Biosciences, Inc; host or cells: baculovirus expression system
T3 sequence (P52333 822-1111 limits assumed): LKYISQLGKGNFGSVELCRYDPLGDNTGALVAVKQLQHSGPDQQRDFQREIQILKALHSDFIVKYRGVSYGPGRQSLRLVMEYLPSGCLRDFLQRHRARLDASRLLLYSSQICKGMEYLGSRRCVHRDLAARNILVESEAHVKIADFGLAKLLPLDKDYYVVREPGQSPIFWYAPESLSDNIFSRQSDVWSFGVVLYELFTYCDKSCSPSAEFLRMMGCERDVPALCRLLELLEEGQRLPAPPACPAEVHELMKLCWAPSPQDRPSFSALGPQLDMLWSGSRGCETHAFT

[4] = biological target: T4, TYK2 (Homo sapiens, UniProt P29597); assay: JAK kinase assay (HTRF, phosphorylation of synthetic peptide), TYK2; details: catalytic domain, ATP at Km (13 μM); read-out: TYK2 kinase inhibitory activity (EC50)
T4 construct: JAK1 (aa 850-1154) and TYK2 (aa 871-1187) are expressed with an N-terminally fused GST-tag; GST (N); purchased Carna Biosciences, Inc; host or cells: baculovirus expression system
T4 sequence (P29597 871-1187): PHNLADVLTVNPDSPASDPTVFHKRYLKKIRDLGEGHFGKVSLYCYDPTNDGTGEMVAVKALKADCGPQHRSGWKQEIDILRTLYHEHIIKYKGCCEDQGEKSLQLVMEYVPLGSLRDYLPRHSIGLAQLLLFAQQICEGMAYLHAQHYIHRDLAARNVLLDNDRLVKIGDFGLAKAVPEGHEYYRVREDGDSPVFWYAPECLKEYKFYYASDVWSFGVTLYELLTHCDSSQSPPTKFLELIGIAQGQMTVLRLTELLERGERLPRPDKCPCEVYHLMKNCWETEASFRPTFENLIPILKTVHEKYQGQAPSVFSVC
How it was run: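 1 µM biotinylated TK peptide at Km ATP in pH 7.0 Hepes, 20-30 min RT. EDTA stop; overnight streptavidin-XL665/cryptate HTRF read.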

SMILES | EC50 [1] [nM] | EC50 [2] [nM] | EC50 [3] [nM] | EC50 [4] [nM]
CN(CC1CCN(C=O)C1)S(=O)(=O)N1CCN(c2ncnc3[nH]ccc23)CC12CC2 (centres unmarked) [Example 128, N-[(1-formylpyrrolidin-3-yl)methyl]-N-methyl-5-(7H-pyrrolo[2,3-d]pyrimidin-4-yl)-5,8-diazaspiro[2.5]octane-8-sulfonamide] | < 100 | < 100 | < 100 | > 500
CN(CC1CCN(S(=O)(=O)CC2CC2)C1)S(=O)(=O)N1CCN(c2ncnc3[nH]ccc23)CC12CC2 (centres unmarked) [Example 122, N-[[1-(cyclopropylmethylsulfonyl)pyrrolidin-3-yl]methyl]-N-methyl-5-(7H-pyrrolo[2,3-d]pyrimidin-4-yl)-5,8-diazaspiro[2.5]octane-8-sulfonamide] | < 100 | < 100 | < 100 | 100 to 500
N#CCCCN(C1COC1)S(=O)(=O)N1CCN(c2ncnc3[nH]ccc23)CC12CC2 [Example 114, N-(3-cyanopropyl)-N-(oxetan-3-yl)-5-(7H-pyrrolo[2,3-d]pyrimidin-4-yl)-5,8-diazaspiro[2.5]octane-8-sulfonamide] | < 100 | < 100 | < 100 | < 100
N#CC1CCCN(S(=O)(=O)N2CCN(c3ncnc4[nH]ccc34)CC23CC3)C1 (centres unmarked) [Example 42, 1-[7-(7H-Pyrrolo[2,3-d]pyrimidin-4-yl)-4,7-diaza-spiro[2.5]octane-4-sulfonyl]-piperidine-3-carbonitrile] | < 100 | < 100 | 100 to 500 | > 500
O=S(=O)(NCc1ccccc1)N1CCN(c2ncnc3[nH]ccc23)CC12CC2 [Example 147, N-benzyl-5-(7H-pyrrolo[2,3-d]pyrimidin-4-yl)-5,8-diazaspiro[2.5]octane-8-sulfonamide] | < 100 | < 100 | 100 to 500 | 100 to 500
CN(CCC1CCCC1)S(=O)(=O)N1CCN(c2ncnc3[nH]ccc23)CC12CC2 [Example 74, N-(2-cyclopentylethyl)-N-methyl-5-(7H-pyrrolo[2,3-d]pyrimidin-4-yl)-5,8-diazaspiro[2.5]octane-8-sulfonamide] | < 100 | < 100 | 100 to 500 | 100 to 500
CN(Cc1ccno1)S(=O)(=O)N1CCN(c2ncnc3[nH]ccc23)CC12CC2 [Example 68, N-(isoxazol-5-ylmethyl)-N-methyl-5-(7H-pyrrolo[2,3-d]pyrimidin-4-yl)-5,8-diazaspiro[2.5]octane-8-sulfonamide] | < 100 | < 100 | < 100 | 100 to 500
CN(C(=O)CCC(F)(F)F)S(=O)(=O)N1CCN(c2ncnc3[nH]ccc23)CC12CC2 [Example 131, 4,4,4-trifluoro-N-methyl-N-[[5-(7H-pyrrolo[2,3-d]pyrimidin-4-yl)-5,8-diazaspiro[2.5]octan-8-yl]sulfonyl]butanamide] | < 100 | < 100 | 100 to 500 | < 100
CN(CC1CCNC1)S(=O)(=O)N1CCN(c2ncnc3[nH]ccc23)CC12CC2 (centres unmarked) [Int 25] | < 100 | < 100 | 100 to 500 | > 500
CN(C[C@@H]1CCCN1C=O)S(=O)(=O)N1CCN(c2ncnc3[nH]ccc23)CC12CC2 [Example 191, N-[[(2S)-1-formylpyrrolidin-2-yl]methyl]-N-methyl-5-(7H-pyrrolo[2,3-d]pyrimidin-4-yl)-5,8-diazaspiro[2.5]octane-8-sulfonamide] | < 100 | < 100 | < 100 | 100 to 500
O=S(=O)(N(CCc1ccccc1)CCn1cccn1)N1CCN(c2ncnc3[nH]ccc23)CC12CC2 [Example 24, 7-(7H-Pyrrolo[2,3-d]pyrimidin-4-yl)-4,7-diaza-spiro[2.5]octane-4-sulfonic acid phenethyl-(2-pyrazol-1-yl-ethyl)-amide] | < 100 | < 100 | < 100 | 100 to 500
N#CCCN(CC1CCCO1)S(=O)(=O)N1CCN(c2ncnc3[nH]ccc23)CC12CC2 (centres unmarked) [Example 142, N-(2-cyanoethyl)-5-(7H-pyrrolo[2,3-d]pyrimidin-4-yl)-N-(tetrahydrofuran-2-ylmethyl)-5,8-diazaspiro[2.5]octane-8-sulfonamide] | < 100 | < 100 | < 100 | 100 to 500
CN(Cc1ccccc1C#N)S(=O)(=O)N1CCN(c2ncnc3[nH]ccc23)CC12CC2 [Example 14, 7-(7H-Pyrrolo[2,3-d]pyrimidin-4-yl)-4,7-diaza-spiro[2.5]octane-4-sulfonic acid (2-cyano-benzyl)-methyl-amide] | < 100 | < 100 | 100 to 500 | < 100
O=S(=O)(N(CCO)C1COC1)N1CCN(c2ncnc3[nH]ccc23)CC12CC2 [Example 116, N-(2-hydroxyethyl)-N-(oxetan-3-yl)-5-(7H-pyrrolo[2,3-d]pyrimidin-4-yl)-5,8-diazaspiro[2.5]octane-8-sulfonamide] | < 100 | < 100 | 100 to 500 | > 500
CC(C)CN(CCc1ccccc1)S(=O)(=O)N1CCN(c2ncnc3[nH]ccc23)CC12CC2 [Example 6, 7-(7H-Pyrrolo[2,3-d]pyrimidin-4-yl)-4,7-diaza-spiro[2.5]octane-4-sulfonic acid isobutyl-phenethyl-amide] | 100 to 500 | < 100 | 100 to 500 | > 500
CN(CC1CC(F)(F)CN1)S(=O)(=O)N1CCN(c2ncnc3[nH]ccc23)CC12CC2 (centres unmarked) [Int 28] | < 100 | < 100 | < 100 | < 100
CN(CCOc1ccc(Cl)cc1)S(=O)(=O)N1CCN(c2ncnc3[nH]ccc23)CC12CC2 [Example 69, N-[2-(4-chlorophenoxy)ethyl]-N-methyl-5-(7H-pyrrolo[2,3-d]pyrimidin-4-yl)-5,8-diazaspiro[2.5]octane-8-sulfonamide] | < 100 | < 100 | 100 to 500 | > 500
O=S(=O)(N(CCc1ccccc1)CC1CCC1)N1CCN(c2ncnc3[nH]ccc23)CC12CC2 [Example 3, 7-(7H-Pyrrolo[2,3-d]pyrimidin-4-yl)-4,7-diaza-spiro[2.5]octane-4-sulfonic acid cyclobutyl methyl-phenethyl-amide] | 100 to 500 | < 100 | 100 to 500 | > 500
CN(C[C@H]1CCCN1C(=O)CCC#N)S(=O)(=O)N1CCN(c2ncnc3[nH]ccc23)CC12CC2 [Example 187, N-[[(2R)-1-(3-cyanopropanoyl)pyrrolidin-2-yl]methyl]-N-methyl-5-(7H-pyrrolo[2,3-d]pyrimidin-4-yl)-5,8-diazaspiro[2.5]octane-8-sulfonamide] | < 100 | < 100 | 100 to 500 | 100 to 500
CN(CCOc1ccc(C#N)cc1)S(=O)(=O)N1CCN(c2ncnc3[nH]ccc23)CC12CC2 [Example 72, N-[2-(4-cyanophenoxy)ethyl]-N-methyl-5-(7H-pyrrolo[2,3-d]pyrimidin-4-yl)-5,8-diazaspiro[2.5]octane-8-sulfonamide] | < 100 | < 100 | 100 to 500 | > 500
O=C(CN(CCc1ccccc1)S(=O)(=O)N1CCN(c2ncnc3[nH]ccc23)CC12CC2)NCc1ccccc1 [Example 49, N-Benzyl-2-{phenethyl-[7-(7H-pyrrolo[2,3-d]pyrimidin-4-yl)-4,7-diaza-spiro[2.5]octane-4-sulfonyl]-amino}-acetamide] | < 100 | < 100 | 100 to 500 | > 500
CN(CC1CCS(=O)(=O)CC1)S(=O)(=O)N1CCN(c2ncnc3[nH]ccc23)CC12CC2 [Example 168, N-[(1,1-dioxothian-4-yl)methyl]-N-methyl-5-(7H-pyrrolo[2,3-d]pyrimidin-4-yl)-5,8-diazaspiro[2.5]octane-8-sulfonamide] | < 100 | < 100 | < 100 | < 100
O=S(=O)(N(CCc1ccccc1)CCc1cccc(F)c1)N1CCN(c2ncnc3[nH]ccc23)CC12CC2 [Example 48, 7-(7H-Pyrrolo[2,3-d]pyrimidin-4-yl)-4,7-diaza-spiro[2.5]octane-4-sulfonic acid [2-(3-fluoro-phenyl)-ethyl]-phenethyl-amide] | 100 to 500 | 100 to 500 | > 500 | > 500
